# Measurements taken from patent US20170368082A1, “FORMULATIONS OF BRINCIDOFOVIR” (priority 2016, published 2017).
# Where two headings read alike, the source gives them in different places.
# Experiment: Phase 2 toxicokinetics of brincidofovir and cidofovir in plasma
# Assay type: in vivo, Sprague-Dawley CD rats
# Conditions: for Tmax: Sprague-Dawley CD, rat, plasma, iv, read-out: Median Tmax; for AUClast/Dose / Cmax/Dose / Tlast: brincidofovir in plasma, 1 mg/kg 2-hour IV infusion, Female rats
# Method: Plasma samples (108) were collected 2 hours following the initiation of dosing on Day 1 and Day 7 (Group 1), or at 1, 2, 8, and 24 hours following the initiation of dosing on Day 1, and prior to administration and at 2, 8, and 24 hours following the initiation of dosing on Day 7 (Groups 2 and 3), and analyzed to determine the concentrations of brincidofovir and the metabolite, cidofovir), by LC/MS/MS.
# Approximately 0.4 mL of whole blood was obtained via the tail vein from each animal at each time point. Animals were not fasted prior to blood collection. Blood was collected into tubes containing K2EDTA anticoagulant and placed on wet ice in an upright position, per facility SOP prior to processing. Plasma was separated by centrifugation (10 minutes at approximately 2000 g, at approximately 2-8° C.). Approximately 0.10 mL of plasma was transferred into a single cryotube appropriately labeled with study number, animal number, time point, date of sampling and sample type. Remaining plasma was transferred into a second cryotube and retained as a backup sample. Plasma frozen at approximately −80±10° C. within approximately 2 hours after collection of each blood sample until analysis. Animals were euthanized (CO2 inhalation) after the final blood collection.
# In general, TK parameters were estimated using mean plasma concentrations of brincidofovir and cidofovir derived from the composite blood sampling design using Phoenix WinNonLin (V 6.3).
# A composite blood sampling design was used such that each rat was sampled twice per sampling day. Blood was collected via tail vein from unanesthetized animals into tubes containing anticoagulant and placed on wet ice in an upright position. Animals were not fasted prior to blood collection. Plasma was separated by centrifugation (for 10 minutes at approximately 2000 g, at approximately 2-8° C.), and transferred into individually labeled cryotubes. All cryotubes containing the collected plasma samples were appropriately labeled as to study number, animal number, time point, date of sampling and sample type. All plasma samples were obtained and frozen at approximately −80° C. (±10° C.) within approximately 2 hours after collection of each blood sample until analysis.
# Rat plasma bioanalysis was conducted by Pyxant Laboratories. Plasma samples were analyzed for concentrations of brincidofovir and cidofovir using a method based upon protein precipitation extraction followed by LC-MS/MS analysis; calibration ranges for brincidofovir and cidofovir were 1.00-1500 ng/mL and 5.00-750 ng/mL, respectively, (Pyxant study number 3025) for a 50 μL aliquot of rat plasma. Sample analysis for ISR was not performed as part of this non-GLP study.
# For the generation of Mean Profiles, all sample concentrations that were below the limit of quantitation (BLQ) were set to 0.
# All pharmacokinetic parameter estimates were completed using a Non-Compartmental Model (Model 200-202 for IV infusion administration). The AUClast and AUCinf were calculated using the linear up log down trapezoidal rule.
# [1] = brincidofovir 1 mg/kg, Male, Day 1, 1 h
# [2] = brincidofovir 1 mg/kg, Male, Day 1, 2 h
# [3] = brincidofovir 1 mg/kg, Male, Day 7, 0 h
# [4] = brincidofovir 1 mg/kg, Male, Day 7, 2 h
# [5] = brincidofovir 15 mg/kg, Female, Day 1, 1 h
# [6] = brincidofovir 15 mg/kg, Female, Day 1, 2 h
# [7] = brincidofovir 15 mg/kg, Female, Day 1, 8 h
# [8] = brincidofovir 15 mg/kg, Female, Day 1, 24 h
# [9] = brincidofovir 15 mg/kg, Female, Day 7, 0 h
# [10] = brincidofovir 15 mg/kg, Female, Day 7, 2 h
# [11] = brincidofovir 15 mg/kg, Female, Day 7, 8 h
# [12] = brincidofovir 15 mg/kg, Female, Day 7, 24 h
# [13] = brincidofovir 15 mg/kg, Male, Day 1, 1 h
# [14] = brincidofovir 15 mg/kg, Male, Day 1, 2 h
# [15] = brincidofovir 15 mg/kg, Male, Day 1, 8 h
# [16] = brincidofovir 15 mg/kg, Male, Day 7, 0 h
# [17] = brincidofovir 15 mg/kg, Male, Day 7, 2 h
compound,measurement,setting,value
CCCCCCCCCCCCCCCCOCCCOP(=O)(O)CO[C@H](CO)Cn1ccc(N)nc1=O [Brincidofovir],Difference in Cmax between female and male,"1 or 15 mg/kg, Days 1 and 7",≤ 54%
same,Tmax,"1 mg/kg, single and twice weekly 1 mg/kg",2 h
same,Tmax,"15 mg/kg, single 15 mg/kg",1 h
same,Tmax,"15 mg/kg, twice weekly 15 mg/kg",2 h
same,brincidofovir Mean Concentration (MC),"brincidofovir 1 mg/kg, Female, Day 7, 24 h",0.00 ng/mL
same,brincidofovir Imputed Mean Concentration (IMC),[1],227 ng/mL
same,brincidofovir Mean Concentration (MC),[1],227 ng/mL
same,brincidofovir Imputed Mean Concentration (IMC),[2],235 ng/mL
same,brincidofovir Mean Concentration (MC),[2],235 ng/mL
same,brincidofovir Mean Concentration (MC),"brincidofovir 1 mg/kg, Male, Day 1, 8 h",0.00 ng/mL
same,brincidofovir Mean Concentration (MC),"brincidofovir 1 mg/kg, Male, Day 1, 24 h",0.00 ng/mL
same,brincidofovir Imputed Mean Concentration (IMC),[3],0.00 ng/mL
same,brincidofovir Mean Concentration (MC),[3],0.00 ng/mL
same,brincidofovir Imputed Mean Concentration (IMC),[4],208 ng/mL
same,brincidofovir Mean Concentration (MC),[4],208 ng/mL
same,brincidofovir Mean Concentration (MC),"brincidofovir 1 mg/kg, Male, Day 7, 8 h",0.00 ng/mL
same,brincidofovir Mean Concentration (MC),"brincidofovir 1 mg/kg, Male, Day 7, 24 h",0.00 ng/mL
same,brincidofovir Imputed Mean Concentration (IMC),[5],3470 ng/mL
same,brincidofovir Mean Concentration (MC),[5],3470 ng/mL
same,brincidofovir Imputed Mean Concentration (IMC),[6],2570 ng/mL
same,brincidofovir Mean Concentration (MC),[6],2570 ng/mL
same,brincidofovir Imputed Mean Concentration (IMC),[7],6.53 ng/mL
same,brincidofovir Mean Concentration (MC),[7],6.53 ng/mL
same,brincidofovir Imputed Mean Concentration (IMC),[8],2.02 ng/mL
same,brincidofovir Mean Concentration (MC),[8],2.02 ng/mL
same,brincidofovir Imputed Mean Concentration (IMC),[9],0.00 ng/mL
same,brincidofovir Mean Concentration (MC),[9],0.00 ng/mL
same,brincidofovir Imputed Mean Concentration (IMC),[10],1660 ng/mL
same,brincidofovir Mean Concentration (MC),[10],1660 ng/mL
same,brincidofovir Imputed Mean Concentration (IMC),[11],5.45 ng/mL
same,brincidofovir Mean Concentration (MC),[11],5.45 ng/mL
same,brincidofovir Imputed Mean Concentration (IMC),[12],0.790 ng/mL
same,brincidofovir Mean Concentration (MC),[12],0.790 ng/mL
same,brincidofovir Imputed Mean Concentration (IMC),[13],4370 ng/mL
same,brincidofovir Mean Concentration (MC),[13],4370 ng/mL
same,brincidofovir Imputed Mean Concentration (IMC),[14],2840 ng/mL
same,brincidofovir Mean Concentration (MC),[14],2840 ng/mL
same,brincidofovir Imputed Mean Concentration (IMC),[15],9.59 ng/mL
same,brincidofovir Mean Concentration (MC),[15],9.59 ng/mL
same,brincidofovir Imputed Mean Concentration (IMC),[16],0.00 ng/mL
same,brincidofovir Mean Concentration (MC),[16],0.00 ng/mL
same,brincidofovir Imputed Mean Concentration (IMC),[17],1910 ng/mL
same,brincidofovir Mean Concentration (MC),[17],1910 ng/mL
same,brincidofovir Mean Concentration (MC),"brincidofovir 15 mg/kg, Male, Day 7, 8 h",8.72 ng/mL
same,AUClast/Dose,Day 1,459 (h*ng/mL)/(mg/kg)
same,Cmax/Dose,Day 1,191 (ng/mL)/(mg/kg)
same,Tlast,Day 1,8 h
same,AUClast/Dose,Day 7,244 (h*ng/mL)/(mg/kg)
same,Cmax/Dose,Day 7,95.4 (ng/mL)/(mg/kg)
same,Tlast,Day 7,8 h
